Publication PMC12135181, “The mechanism of lineage-specific tRNA recognition by bacterial tryptophanyl-tRNA synthetase and its implications for inhibitor discovery” (Nucleic Acids Research, 2025)
Read-outs that look alike come from different tables or passages of the source.

Key:
EcTrpRS [1] = target: T1, EcTrpRS (Escherichia coli, UniProt P00954); assay: Pyrophosphate (PPi) production assay; type: biochemical; settings: 10 μM compound, average of three; for inhibition at 10 µM: read-out: Inhibitory rate of PPi production activity of EcTrpRS
T1 construct: hexahistidine tag (C); made in house; host or cells: Escherichia coli BL21(DE3)
Experimental: The inhibitory effects of various compounds of EcTrpRS were evaluated using a pyrophosphate (PPi) production assay. EcTrpRS was incubated with 10 μM (in 0.1% DMSO) of each compound for 10 min at room temperature. […] The mixture was incubated at 26°C for 45 min, after which 40 μl of malachite green reagent was added to terminate the reaction and develop color. Following an additional incubation of 10 min, the absorbance (A) was measured at 640 nm using a Synergy H1 microplate reader (BioTek). The absorbance of the reaction without adding a compound was designated as A1, the absorbance of the reaction without adding EcTrpRS was A0, and the absorbance of the reaction with the addition of a compound was AC. The inhibitory rates of compounds on enzyme activity were calculated as (A1 − AC)/(A1 − A0) × 100%. Each reaction was performed in triplicate.

EcTrpRS [2] = target: T1, EcTrpRS; assay: Isothermal titration calorimetry (ITC) to EcTrpRS; type: binding
Experimental: (§1) The binding affinities of various compounds to EcTprRS were measured using a MicroCal VP-ITC microcalorimeter (MicroCal). Compounds at a concentration of 200 μM were titrated into 20 μM of EcTrpRS in PBS (phosphate buffered saline) buffer (137 mM NaCl, 2.7 mM KCl, 8 mM Na2HPO4, and 2 mM KH2PO4). The titration assays were conducted at 26°C, beginning with an initial injection of 0.4 μl, followed by 18 injections of 2 μl each, with an interval of 120 s between each injection. The dissociation constants (Kd) were calculated by fitting the calorimetric data to a one-site binding model using MicroCal PEAQ-ITC analysis software, with the reported errors in Kd values representing the curve fitting errors. All isothermal titration calorimetry (ITC) experiments were repeated at least twice, and the titrations of compounds to HcTrpRS were also performed for comparison.

EcTrpRS [3] = target: T1, EcTrpRS; type: binding
HcTrpRS = target: T2, HcTrpRS (Homo sapiens, UniProt P23381); assay: Isothermal titration calorimetry (ITC) to HcTrpRS; type: binding
T2 construct: made in house
T2 sequence (P23381 1-471): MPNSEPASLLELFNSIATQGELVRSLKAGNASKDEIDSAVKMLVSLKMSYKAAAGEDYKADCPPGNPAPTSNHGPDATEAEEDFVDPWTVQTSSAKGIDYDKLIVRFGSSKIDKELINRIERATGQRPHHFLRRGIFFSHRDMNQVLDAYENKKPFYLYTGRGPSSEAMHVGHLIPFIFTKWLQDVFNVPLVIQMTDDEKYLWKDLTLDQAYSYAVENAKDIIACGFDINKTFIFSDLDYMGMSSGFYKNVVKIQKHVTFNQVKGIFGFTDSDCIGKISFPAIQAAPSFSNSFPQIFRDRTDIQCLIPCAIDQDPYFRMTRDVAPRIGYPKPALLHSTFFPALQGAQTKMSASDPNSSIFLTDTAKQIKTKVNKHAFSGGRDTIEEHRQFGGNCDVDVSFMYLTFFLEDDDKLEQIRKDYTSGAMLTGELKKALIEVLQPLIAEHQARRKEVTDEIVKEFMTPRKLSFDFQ
Experimental: as §1

[4] = no tRNA, no ATP, 26°C, PBS, read-out: Kd for binding to EcTrpRS (ITC)

Compound	Inhibitory rate of PPi production activity of EcTrpRS (EcTrpRS [1]; 10 µM)	Change of ΔTm of EcTrpRS with compound after addition of tRNA^Trp (EcTrpRS [3])	inhibition at 10 µM (EcTrpRS [1])	further results
Nc1ncnc2n[nH]c(-c3ccc(Oc4ccccc4)cc3)c12 [IBT4A]	nor did they exhibit considerable inhibitory rates			Inhibitory rate of PPi production activity of EcTrpRS (EcTrpRS [1]; listed as 8, 10 µM): < 5%
Nc1ncnc2c1c(-c1ccc(Oc3ccccc3)cc1)nn2[C@@H]1CCCNC1 [IBT6A]	nor did they exhibit considerable inhibitory rates			Inhibitory rate of PPi production activity of EcTrpRS (EcTrpRS [1]; listed as 6, 10 µM): 9%
N[C@@H](Cc1c[nH]c2ccccc12)C(=O)O [L-Trp, tryptophan]				Binding to EcTrpRS (ITC) (EcTrpRS [2]; in the presence of 200 μM N-piperidine ibrutinib): no binding; Kd (EcTrpRS [2]; [4]): 40200 ± 4800 nM
C=CC(=O)N1CCC[C@H](n2c(=O)n(-c3ccc(Oc4ccccc4)cc3)c3c(N)ncnc32)C1 [ONO-4059 analogue]		reduced	38%	
Nc1ncnc2c1c(-c1ccc(Oc3ccccc3)cc1)nn2C1CCCC1 [PCI-29732]	nor did they exhibit considerable inhibitory rates			Inhibitory rate of PPi production activity of EcTrpRS (EcTrpRS [1]; listed as 7, 10 µM): < 5%
C=CC(=O)N1CCC[C@@H](n2nc(-c3ccc(Oc4ccccc4)cc3)c3c(N)ncnc32)C1 [ibrutinib]			12%	ΔTm of EcTrpRS (EcTrpRS [3]): did not produce significant changes; Inhibitory rate of PPi production activity of EcTrpRS (EcTrpRS [1]): nor did they exhibit considerable inhibitory rates
CN=C1NC(=O)[C@H]([C@H](C)c2c[nH]c3ccccc23)O1 [indolmycin]			93%	Kd (EcTrpRS [2]; in the absence of ATP, read-out: Kd (binding affinity) to EcTrpRS (ITC)): 804 ± 54 nM; Kd (EcTrpRS [2]; in the presence of 1 mM ATP, read-out: Kd (binding affinity) to EcTrpRS (ITC)): 503 ± 31 nM
CC#CC(=O)N1CC[C@@H](n2c(=O)n(-c3ccc(Oc4ccccc4)cc3)c3c(N)ncnc32)C1 [tirabrutinib]		reduced	50%	Kd (EcTrpRS [2]; [4]): 4800 ± 200 nM; Binding affinity for HcTrpRS (ITC) (HcTrpRS): no binding affinities
C=CC(=O)N1CCC[C@@H](n2c(=O)n(-c3ccc(Oc4ccccc4)cc3)c3c(N)nccc32)C1 [tolebrutinib]		reduced	19%	
